Reference: patent US11332459B2 (TEIJIN PHARMA LIMITED, priority 2017, dated 2022)
Structures can show the parent of a compound that is named as a salt.

Molecular target: T1, human TRPC6 (Homo sapiens, UniProt Q9Y210)
T1 construct: expressed in transfected cells
T1 sequence (Q9Y210 1-931): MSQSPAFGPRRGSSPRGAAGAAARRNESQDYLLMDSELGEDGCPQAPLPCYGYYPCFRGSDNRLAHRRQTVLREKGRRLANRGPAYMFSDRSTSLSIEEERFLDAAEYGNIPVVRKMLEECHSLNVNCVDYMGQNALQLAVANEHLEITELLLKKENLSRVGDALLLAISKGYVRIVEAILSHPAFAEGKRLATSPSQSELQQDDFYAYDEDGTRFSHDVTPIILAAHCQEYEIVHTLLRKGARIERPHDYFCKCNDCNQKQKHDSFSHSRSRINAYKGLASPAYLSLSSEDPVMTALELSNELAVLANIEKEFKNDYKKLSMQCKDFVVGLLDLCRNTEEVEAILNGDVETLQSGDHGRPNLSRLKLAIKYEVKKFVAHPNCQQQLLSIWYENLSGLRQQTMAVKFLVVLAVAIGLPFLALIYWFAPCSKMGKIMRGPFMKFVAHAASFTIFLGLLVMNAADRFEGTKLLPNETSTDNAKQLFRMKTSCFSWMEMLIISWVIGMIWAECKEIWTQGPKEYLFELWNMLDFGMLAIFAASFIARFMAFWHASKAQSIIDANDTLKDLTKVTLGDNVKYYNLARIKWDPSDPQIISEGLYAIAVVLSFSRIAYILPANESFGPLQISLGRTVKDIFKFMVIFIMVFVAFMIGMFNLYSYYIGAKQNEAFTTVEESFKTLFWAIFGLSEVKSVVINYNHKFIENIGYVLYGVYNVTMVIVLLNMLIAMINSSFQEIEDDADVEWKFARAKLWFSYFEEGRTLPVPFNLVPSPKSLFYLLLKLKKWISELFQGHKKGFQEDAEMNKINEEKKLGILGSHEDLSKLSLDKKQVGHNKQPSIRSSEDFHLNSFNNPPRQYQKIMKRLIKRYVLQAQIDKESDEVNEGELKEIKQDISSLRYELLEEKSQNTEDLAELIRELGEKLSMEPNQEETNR
Assay: TRPC6 calcium flux assay (FLIPR, OAG-stimulated calcium influx)
Format: cell-based
Settings: HEK293 cells stably transfected with human TRPC6, read-out: hTRPC6 Potency
Outline: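 HEK293 cells stably expressing human TRPC6, loaded with calcium dye 90–120 min at RT, then given compound for 25 min before OAG (50 uM final, 0.5% DMSO) in HEPES buffer pH 7.2 with 2 mM CaCl2. Background-subtracted FLIPR peak over 180 s normalized to OAG vs buffer; IC50 from dose plot.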

| Compound | IC50 |
| --- | --- |
| Cc1cnc(Cn2c(N3CC[C@@H](F)[C@H](N)C3)nc3cc(F)c(F)cc32)o1 [Example 567, (3R,4R)-1-(5,6-difluoro-1-((5-methyloxazol-2-yl)methyl)-1H-benzo[d]imidazol-2-yl)-4-fluoropiperidin-3-amine] | 0.0398 µM |
| COc1cnc(Cn2c(N3CC[C@@H](F)[C@H](N)C3)nc3cc(C#N)ccc32)nc1 [Example 241, 2-((3R,4R)-3-amino-4-fluoropiperidin-1-yl)-1-((5-methoxypyrimidin-2-yl)methyl)-1H-benzo[d]imidazole-5-carbonitrile hydrochloride] | > 3.75 µM |
| N[C@@H]1CCCN(c2nc3ccccc3n2Cc2ccc3ccncc3c2)C1 [Example 293, (R)-1-(1-(isoquinolin-7-ylmethyl)-1H-benzo[d]imidazol-2-yl)piperidin-3-amine] | 2.92 µM |
| N[C@@H]1CN(c2nc3cc(F)cc(F)c3n2Cc2ncc(F)cn2)CC[C@H]1F [Example 34, (3R,4R)-1-(5,7-difluoro-1-((5-fluoropyrimidin-2-yl)methyl)-1H-benzo[d]imidazol-2-yl)-4-fluoropiperidin-3-amine] | 0.0689 µM |
| N#Cc1cccc(Cn2c(N3CCC[C@@H](N)C3)nc3ccccc32)c1 [Example 400, (R)-3-((2-(3-aminopiperidin-1-yl)-1H-benzo[d]imidazol-1-yl)methyl)benzonitrile] | 16.5 µM |
| CN(CC(F)(F)F)C(=O)Cn1c(N2CC[C@@H](F)[C@H](N)C2)nc2c(C#N)cc(F)cc21 [Example 447, 2-(2-((3R,4R)-3-amino-4-fluoropiperidin-1-yl)-4-cyano-6-fluoro-1H-benzo[d]imidazol-1-yl)-N-methyl-N-(2,2,2-trifluoroethyl)acetamide] | 0.119 µM |
| CN(CC(F)(F)F)C(=O)Cn1c(N2CC[C@H](N)C2)nc2ccc(F)cc21 [Example 489, (S)-2-(2-(3-aminopyrrolidin-1-yl)-6-fluoro-1H-benzo[d]imidazol-1-yl)-N-methyl-N-(2,2,2-trifluoroethyl)acetamide] | > 3.75 µM |
| N[C@@H]1CN(c2nc3cc(F)c(F)cc3n2CC(=O)N2CCNC(=O)C2)CC[C@H]1F [Example 528, 4-(2-(2-((3R,4R)-3-amino-4-fluoropiperidin-1-yl)-5,6-difluoro-1H-benzo[d]imidazol-1-yl)acetyl)piperazin-2-one] | > 3.75 µM |
| C[C@H](c1cccc(Cl)c1)n1c(N2CC[C@@H](F)[C@H](N)C2)nc2cc(F)c(F)cc21 [Example 326, (3R,4R)-1-(1-((1R)-1-(3-chlorophenyl)ethyl)-5,6-difluoro-1H-benzimidazol-2-yl)-4-fluoro-3-piperidinamine] | 2.93 µM |
| CN(C)C(=O)Cn1c(N2CC[C@@H](F)[C@H](N)C2)nc2cc(OC(F)(F)F)ccc21 [Example 474, 2-(2-((3R,4R)-3-amino-4-fluoropiperidin-1-yl)-5-(trifluoromethoxy)-1H-benzo[d]imidazol-1-yl)-N,N-dimethylacetamide] | 0.411 µM |
| N[C@@H]1CN(c2nc3cc(F)c(F)cc3n2CC(=O)N2CCN3C(=O)NCC3C2)CC[C@H]1F (stereo partly drawn) [Example 642, 7-(2-(2-((3R,4R)-3-amino-4-fluoropiperidin-1-yl)-5,6-difluoro-1H-benzo[d]imidazol-1-yl)acetyl)hexahydroimidazo [1,5-a]pyrazin-3(2H)-one] | 1.65 µM |
| C[C@H](c1cc(F)ccc1F)n1c(N2CC[C@@H](F)[C@H](N)C2)nc2cc(F)c(F)cc21 [Example 334, (3R,4R)-1-(1-((1R)-(2,5-difluorophenyl)ethyl)-5,6-difluoro-1H-benzimidazol-2-yl)-4-fluoro-3-piperidinamine] | 3.54 µM |
| CN[C@@H]1CCCN(c2nc3ccccc3n2Cc2ccc(C#N)cn2)C1 [Example 117, 6-((2-((3R)-3-(methylamino)-1-piperidinyl)-1H-benzimidazol-1-yl)methyl)-3-pyridinecarbonitrile] | > 3.75 µM |
| N#Cc1ccc(Cn2c(N3CC[C@H](CN)C3)nc3ccccc32)nc1 [Example 80, (R)-6-((2-(3-(aminomethyl)pyrrolidin-1-yl)-1H-benzo[d]imidazol-1-yl)methyl)nicotinonitrile hydrochloride] | 0.0793 µM |
| C[C@@H](c1ccc(Cl)cc1Cl)n1c(N2CC[C@@H](F)[C@H](N)C2)nc2cc(F)c(F)cc21 [Example 323, (3R,4R)-1-(1-((1S)-1-(2,4-dichlorophenyl)ethyl)-5,6-difluoro-1H-benzimidazol-2-yl)-4-fluoro-3-piperidinamine] | > 3.75 µM |
| COc1cc(F)cc2c1nc(N1CC[C@@H](F)[C@H](N)C1)n2CC(=O)N1CCOCC1 [Example 545, 2-(2-((3R,4R)-3-amino-4-fluoropiperidin-1-yl)-6-fluoro-4-methoxy-1H-benzo[d]imidazol-1-yl)-1-morpholinoethan-1-one] | > 3.75 µM |
| N[C@@H]1CN(c2nc3cc(F)c(F)cc3n2Cc2ccc(Cl)c(Cl)c2)CC[C@H]1F [Example 359, (3R,4R)-1-(1-(3,4-dichlorobenzyl)-5,6-difluoro-1H-benzimidazol-2-yl)-4-fluoro-3-piperidinamine] | 0.238 µM |
| CC1(C)CCCN1C(=O)Cn1c(N2CC[C@@H](F)[C@H](N)C2)nc2cc(F)c(F)cc21 [Example 310, 2-(2-((3R,4R)-3-amino-4-fluoropiperidin-1-yl)-5,6-difluoro-1H-benzo[d]imidazol-1-yl)-1-(2,2-dimethylpyrrolidin-1-yl)ethan-1-one] | 0.765 µM |
| CC(C)C1CN(C(=O)Cn2c(N3CC[C@@H](F)[C@H](N)C3)nc3cc(F)c(F)cc32)C1 [Example 429, 2-(2-((3R,4R)-3-amino-4-fluoropiperidin-1-yl)-5,6-difluoro-1H-benzo[d]imidazol-1-yl)-1-(3-isopropylazetidin-1-yl)ethanone] | > 3.75 µM |

These reach a lower IC50. Values come first.

| IC50 | Compound |
| --- | --- |
| 0.00562 µM | N#Cc1ccc(Cn2c(N3CCC(F)(F)[C@H](N)C3)nc3cc(F)ccc32)nc1 [Example 71, (R)-6-((2-(3-amino-4,4-difluoropiperidin-1-yl)-5-fluoro-1H-benzo[d]imidazol-1-yl)methyl)nicotinonitrile hydrochloride] |
| 0.0281 µM | N#Cc1cnc(Cn2c(N3CCC(F)(F)[C@H](N)C3)nc3ccccc32)cn1 [Example 199] |
| 0.00258 µM | N#Cc1ccc(Cn2c(N3CC[C@@H](F)[C@H](N)C3)nc3ncc(C(F)(F)F)cc32)nc1 [Example 499, 6-((2-((3R,4R)-3-amino-4-fluoropiperidin-1-yl)-6-(trifluoromethyl)-1H-imidazo[4,5-b]pyridin-1-yl)methyl)nicotinonitrile] |
| 0.0224 µM | CN(C(=O)Cn1c(N2CC[C@@H](F)[C@H](N)C2)nc2cc(F)c(F)cc21)C1CCOC1 (stereo partly drawn) [Example 611, 2-(2-((3R,4R)-3-amino-4-fluoropiperidin-1-yl)-5,6-difluoro-1H-benzo[d]imidazol-1-yl)-N-methyl-N-(tetrahydrofuran-3-yl)acetamide] |
| 0.00559 µM | Cc1cccc2c1nc(N1CC[C@@H](F)[C@H](N)C1)n2Cc1ccc(C#N)cn1 [Example 121, 6-((2-((3R,4R)-3-amino-4-fluoro-1-piperidinyl)-4-methyl-1H-benzimidazol-1-yl)methyl)-3-pyridinecarbonitrile] |
| 0.0027 µM | N#Cc1ccc(Cn2c(N3CCC[C@H](N)C3)nc3c(F)cc(F)cc32)nc1 [Example 61, (S)-6-((2-(3-aminopiperidin-1-yl)-4,6-difluoro-1H-benzo[d]imidazol-1-yl)methyl)nicotinonitrile] |
| 0.000281 µM | Cc1cc2nc(N3CC[C@@H](F)[C@H](N)C3)n(Cc3ccc(C#N)cn3)c2cc1Cl [Example 112, 6-((2-((3R,4R)-3-amino-4-fluoro-1-piperidinyl)-6-chloro-5-methyl-1H-benzimidazol-1-yl)methyl)-3-pyridinecarbonitrile] |
| 0.00117 µM | COc1cc(F)cc2c1nc(N1CC[C@@H](F)[C@H](N)C1)n2Cc1ccc(C#N)cn1 [Example 452, 6-((2-((3R,4R)-3-amino-4-fluoropiperidin-1-yl)-6-fluoro-4-methoxy-1H-benzo[d]imidazol-1-yl)methyl)nicotinonitrile] |
| 0.0022 µM | N#Cc1ccc(Cn2c(N3CC[C@H](F)[C@H](N)C3)nc3cc(F)ccc32)nc1 [Example 48, 6-((2-((3R,4S)-3-amino-4-fluoropiperidin-1-yl)-5-fluoro-1H-benzo[d]imidazol-1-yl)methyl)nicotinonitrile hydrochloride] |
| 0.00194 µM | N#Cc1ccc(Cn2c(N3CC[C@@H](F)[C@H](N)C3)nc3cc(OC(F)F)ccc32)nc1 [Example 119, 6-((2-((3R,4R)-3-amino-4-fluoro-1-piperidinyl)-5-(difluoromethoxy)-1H-benzimidazol-1-yl)methyl)-3-pyridinecarbonitrile] |
